Columns and labels:
[1] = system: Plasmodium falciparum; assay: Growth inhibition of Plasmodium falciparum FCB125; format: functional, organism-based
[2] = system: Plasmodium falciparum; assay: Growth inhibition of chloroquine-resistant Plasmodium falciparum; format: functional, organism-based
[3] = system: Plasmodium falciparum; assay: Growth inhibition of pyrimethamine-resistant Plasmodium falciparum; format: functional, organism-based
[4] = system: AIK-T4; assay: (§1) The compound was evaluated for toxicity against HIV infected T4 lymphocytes; format: functional; settings: Homo sapiens
[5] = system: AIK-T4; assay: as §1; format: functional, cell-based; settings: Homo sapiens
[6] = system: NCI-H522; assay: The compound was evaluated for its ability to inhibit growth of non small cell lung cancer ([…] cell line); format: functional; settings: Homo sapiens

SMILES	IC50 [1]	further results
OC1OC(CSC(F)(F)F)C(O)C1O (centres undefined)	> 100 µM	IC50 [2]: > 100 µM; IC50 [3]: 50 µM
NC1=NCN=C2C1N=CN2C1O[C@H](CSC(F)(F)F)[C@@H](O)[C@H]1O (some centres undefined)	0.018 µM	GI50 [4]: 0.117 µM
NC1=NCN=C2C1N=CN2C1O[C@H](CSCCF)[C@@H](O)[C@H]1O (some centres undefined)	0.043 µM	–
NC1=NCN=C2C1N=CN2C1O[C@H](CSC(F)F)[C@@H](O)[C@H]1O (some centres undefined)	35 µM	IC50 [5]: 222 µM; GI50 [6]: 86 µM
NC1=NCN=C2C1N=CN2C1O[C@H](CSCC(F)(F)F)[C@@H](O)[C@H]1O (some centres undefined)	0.085 µM	IC50 [5]: 0.245 µM; GI50 [6]: 45 µM
NC1=NCN=C2C1N=CN2C1O[C@H](CSCC(F)F)[C@@H](O)[C@H]1O (some centres undefined)	0.025 µM	–
OC1O[C@H](CSC(F)F)[C@@H](O)[C@H]1O (some centres undefined)	> 100 µM	–

Reference: ChEMBL document CHEMBL1125960, “Synthesis and biological activity of fluorinated intermediates of the methionine salvage pathway” (Bioorg Med Chem Lett, 1991)
